From paper PMC9163831 (Frontiers in Microbiology, 2022)

Key:
[1] = system: Salmonella 26FS14 (mcr-1); assay: Antimicrobial combination susceptibility testing (MIC, MBC, checkerboard FICI) in MH broth; format: cell-based, S. typhimurium; settings: for MIC (in combination): colistin + IBG checkerboard
Experimental: (§1) The susceptibility of the selected Salmonella isolates and quality control isolate (ATCC 25922) to colistin and IBG in MH broth was investigated in accordance with the methods and quality control requirements recommended by the Clinical and Laboratory Standards Institute. Minimal inhibitory concentration (MIC) was the lowest concentration of colistin where visible bacterial growth was inhibited after 24 h of incubation. E. coli ATCC 25922 was used as the quality control strain to ensure the credibility of MICs tested. Susceptibility testing was performed in triplicate and germ-free controls (blank medium). The minimum bactericidal concentration (MBC) in MH broth was measured according to a previous report (Lei et al., [2017]). The synergistic activity between colistin and IBG, and the fractional inhibitory concentration indices (FICI) were measured by checkerboard assays, based on the MIC of each drug (MacNair et al., [2018]). In brief, 50 μL of broth was added to each well, and 50 μL of the indicated concentration of colistin was added into the first well of each line. This process was followed by multiple proportion dilution. Next, 50 μL of samples of different IBG concentrations was added to the dilution medium, and 100 μL of inoculum with a cell density of ~1 × 10^6 colony-forming units (CFU)/mL was added to each well. The FICI was calculated follows:
(§2) (1) FICI=MIC(Colistinincombination)/MIC(Colistin)+MIC(IBGincombination)/MIC(IBG).

[2] = system: Salmonella 26FS26 (mcr-1); assay: as above; format: cell-based, S. typhimurium; settings: for MIC (in combination): colistin + IBG checkerboard
Experimental: as §1, §2

Salmonella ATCC14028 = assay: as above; format: cell-based, S. typhimurium; settings: for MBC / MIC: alone; for MIC (in combination): colistin + IBG checkerboard
Experimental: as §1, §2

Salmonella S226 (mcr-1) = assay: as above; format: cell-based, S. typhimurium; settings: for MIC (in combination): colistin + IBG checkerboard
Experimental: as §1, §2

Salmonella S235 (mcr-1) = assay: as above; format: cell-based, S. typhimurium; settings: for MIC (in combination): colistin + IBG checkerboard
Experimental: as §1, §2

[3] = system: human lung epithelial cells (A549); design: method as in Zhang et al., [2019]; settings: ref Zhang et al., [2019]; cited from earlier work
erythrocytes in mice = system: erythrocytes in mice; design: method as in Zhang et al., [2019]; settings: ref Zhang et al., [2019]; cited from earlier work
[4] = design: method as in Xiao et al., [2018]; settings: IBG supplementation; ref Xiao et al., [2018]; cited from earlier work
[5] = system: mcr-1-positive Salmonella; assay: MIC of colistin with and without IBG; format: cell-based
Experimental: as §1, with “well.” for “well. The FICI was calculated follows:”

[6] = system: mcr-1-positive Salmonella; assay: In vitro time-killing curves; format: cell-based
Experimental: After MIC determination, different concentrations of colistin were prepared in broth ranging from different doses before bacterial inoculation (10^6 CFU/mL). Growth was checked with control. The tubes containing bacteria and different concentrations of colistin and IBG were incubated at 37°C. The bacterial count (CFU/mL) was determined for each tube after 0, 1, 2, 4, 6, 8, 12, and 24 h of incubation. In brief, 100 μL of culture was obtained for each time point, and serially diluted, and the colonies were counted the next morning. Each concentration test was performed in triplicate.

[7] = Pharmacokinetics of colistin in ileum contents, mcr-1-positive Salmonella infection model; format: in vivo, broilers; settings: for AUC0-24h (intestinal colistin) / Cmax (peak intestinal colistin concentration) / T>MIC: infected broiler
Experimental: After 7-day acclimation, 200 infected broilers were randomly divided into five groups (n = 40/group). Pharmacokinetic analysis of colistin (2, 4, 8, and 16 mg/kg) alone and in combination (4 mg/kg colistin, 32 mg/kg IBG) was performed in mcr-1-positive Salmonella infection broilers following oral gavage. At 0.25, 0.5, 0.75, 1, 2, 4, 6, 8, 12, and 24 h after oral administration, four broilers per group were humanely killed and ileum contents (0.5 g) were sampled. The concentration of colistin in each ileum content sample was determined by validated liquid chromatography-tandem mass spectrometry (LC-MS/MS), with minor modifications. Briefly, intestinal contents (0.5 g) were extracted with 10 mL of 10% trichloroacetic acid and 10 mL of 4% lead acetate, homogenized for 1 min, ultrasonicated (30 min) and centrifuged (10,000 g, 10 min) to obtain supernatant. Thereafter, 2 mL of extraction solution was applied to HLB SPE cartridges, which were prewashed with 3 mL of methanol and 3 mL of water. The cartridges were then rinsed with 3 mL of 4% lead acetate. Afterward, the colistin was eluted with 6 mL of 20% methanol. The elute was evaporated to dryness under a gentle N2 stream at 40°C and the residue was dissolved in 0.5 mL of 0.1% formic acid for concentration analysis. The drug concentrations in intestinal contents were determined using HPLC-MS/MS. The calibration range was 0.25–5 μg/g. The intraday and interday precision levels varied from 2.1 to 9.8% and from 4.5 to 7.0%, respectively. The limit of detection (LOD) and limit of quantification (LOQ) were 0.10 and 0.25 μg/g, respectively.
The values of colistin intestinal content PK parameters in single-dose PK studies were obtained by non-compartmental analysis in Phoenix WinNonlin® 8.2 (Certara, L.P., Princeton, NJ, USA).

[8] = system: mcr-1-positive Salmonella; assay: Pharmacodynamics of colistin combined with IBG in an intestinal infection model; format: in vivo, broilers
Experimental: Broilers were inoculated by oral gavage with 1 mL of mcr-1-positive Salmonella culture containing […]. Necropsies of broilers that had died from infection and of euthanized animals were investigated, and the ileum content samples of broilers were taken as previously described (Addwebi et al., [2014]; Wang et al., [2020]). DNA was extracted from ileum content samples using a fecal DNA extraction kit (G-Clone, Beijing, China) in accordance with the manufacturer's instructions.
Pharmacodynamic analysis of combined colistin and IBG treatment in mcr-1-positive Salmonella infection broilers was performed at 3 h after administration of the inoculum. Afterward, 32 mg/kg of IBG was combined with 2, 4, 8, or 16 mg/kg of colistin, and colistin and IBG were also tested alone at 2, 4, 8, and 16 mg/kg (n = 4 for each group). The broilers were sacrificed after 24 h of therapy, and the intestinal content samples were aseptically removed and homogenized for CFU determination. Untreated control broilers were sacrificed before colistin treatment and at 24 h after treatment.

[9] = system: mcr-1-positive Salmonella; assay: PK/PD analysis, inhibitory effect Imax model; format: in vivo, broilers
Experimental: PK/PD analysis was conducted using the inhibitory effect Imax model (Riviere and Toutain, [2011]). This model is described by the following equation: […]
where E is the antibacterial effect, measured as change in log10CFU/g after 24 h of treatment, compared with the initial log10CFU/g in the untreated control broiler; E0 is the difference in the number of bacteria (log10CFU/g) in control samples between time 0 and 24 h. Imax is the maximum antimicrobial growth inhibition determined as the change in log10CFU/g after 24 h treatment with colistin combined with IBG. X is the predictive variable (expressed as AUC0−24h/MIC, Cmax/MIC, and %T>MIC), and IC50 is the X value producing 50% of the maximum antibacterial effect. The relationship between efficacy and the three PK/PD indices was determined by non-linear least-squares regression in a Phoenix WinNonlin® PD model. The coefficient of determination (R^2) was used to estimate the variance caused by regression for each PK/PD index.

[10] = system: mcr-1-positive Salmonella; assay: Dose determination from AUC/MIC targets; format: in vivo, broilers; settings: combination: with 32 mg/kg of IBG
Excerpt: The potential optimal dosage can be calculated using the following equation (Toutain et al., [2002], [2007]):
(3) Dose=(AUC/MIC)·MIC·CL/fu·F,
where dose (per day) is at steady state; CL is the clearance per day; AUC/MIC is the targeted endpoint for optimal efficacy in hours; MIC is the target pathogen; F is the bioavailability factor (from 0 to 1), and fu is the free fraction of the drug (from 0 to 1). In this study, fu = 1.

[11] = design: method as in Mead et al. ([2021]); settings: oral administration, 75,000 I.U./kg, chicken; ref Mead et al. ([2021]); cited from earlier work
[12] = single gavage 16 mg/kg colistin

In the case of `CC(C)Oc1ccc(/C=N/NC(=N)N/N=C/c2ccc(OC(C)C)cc2)cc1` [IBG, isopropoxy benzene guanidine], the “MIC (in combination)” value [1] is reported as 8 µg/mL, the “MIC (in combination)” value [2] is reported as 16 µg/mL and the MBC (Salmonella ATCC14028) is reported as greater than 512 µg/mL. The MIC (Salmonella ATCC14028) was greater than 512 µg/mL, the “MIC (in combination)” value (Salmonella ATCC14028) was 4 µg/mL and the “MIC (in combination)” value (Salmonella S226 (mcr-1)) was 16 µg/mL. For the same compound, the “MIC (in combination)” value (Salmonella S235 (mcr-1)) was 16 µg/mL, the “Cytotoxicity IC50” value [3] was 28 µg/mL and the HC50 (erythrocytes in mice) was greater than 400 µg/mL. The “Adverse reactions in broilers” value [4] was “without adverse reactions”, the “Average daily gain of broilers” value [4] was “improved” and the “Diarrhea rate of broilers” value [4] was “reduced”.

For Colistin sulfate, the MBC ([1]; alone) was 4 µg/mL, the MIC ([1]; alone) was 2 µg/mL and the “MIC (in combination)” value [1] was 0.25 µg/mL. For the same compound, the MBC ([2]; alone) was 4 µg/mL, the MIC ([2]; alone) was 2 µg/mL and the “MIC (in combination)” value [2] was 0.5 µg/mL. The MBC (Salmonella ATCC14028) was 1 µg/mL, the MIC (Salmonella ATCC14028) was 0.5 µg/mL and the “MIC (in combination)” value (Salmonella ATCC14028) was 0.125 µg/mL. The MBC (Salmonella S226 (mcr-1); alone) was 4 µg/mL, the MIC (Salmonella S226 (mcr-1); alone) was 2 µg/mL and the “MIC (in combination)” value (Salmonella S226 (mcr-1)) was 0.25 µg/mL. For the same compound, the MBC (Salmonella S235 (mcr-1); alone) was 4 µg/mL, the MIC (Salmonella S235 (mcr-1); alone) was 2 µg/mL and the “MIC (in combination)” value (Salmonella S235 (mcr-1)) was 0.25 µg/mL. The MIC of colistin ([5]; colistin alone) was 2 µg/mL, the “MIC of colistin in the presence of IBG” value ([5]; in the presence of 8 mg/L of IBG) was 0.25 µg/mL and the Time-kill result ([6]; colistin at 4 mg/L, mcr-1-positive Salmonella) was “Persisting inhibition of bacterial growth”. For the same compound, the “Killing characteristic (time-kill profiles)” value ([6]; varying concentrations, 24 h) was “concentration-dependent killing”, the “Colistin in ileum samples after 4 h” value ([7]; doses <16 mg/kg, after gavage) was “no colistin was detectable” and the “AUC0-24h (intestinal colistin)” value ([7]; single gavage 2 mg/kg colistin) was 31.58 µg·h/mL. The “Cmax (peak intestinal colistin concentration)” value (shortened to “Cmax”) ([7]; single gavage 2 mg/kg colistin) was 13.74 µg/mL, the “T>MIC” value ([7]; single gavage 2 mg/kg colistin) was 15.11% and the “AUC0-24h (intestinal colistin)” value ([7]; single gavage 4 mg/kg colistin) was 43.79 µg·h/mL. For the same compound, the “Cmax” value ([7]; single gavage 4 mg/kg colistin) was 34.37 µg/mL, the “T>MIC” value ([7]; single gavage 4 mg/kg colistin) was 16.48% and the “AUC0-24h (intestinal colistin)” value ([7]; single gavage 8 mg/kg colistin) was 191.81 µg·h/mL. For the same compound, the “Cmax” value ([7]; single gavage 8 mg/kg colistin) was 75.92 µg/mL, the “T>MIC” value ([7]; single gavage 8 mg/kg colistin) was 16.62% and the “AUC0-24h (intestinal colistin)” value [7, 12] was 505.29 µg·h/mL. The “Cmax” value [7, 12] was 151.15 µg/mL, the “T>MIC” value [7, 12] was 99.98% and the “Effect on broilers infected with mcr-1 positive Salmonella” value ([8]; single dose of 2–16 mg/kg of colistin every 24 h) was “not significant effect”. The “3 × log10 kill effect in vivo” value ([8]; ≤ 16 mg/kg of colistin, monotherapy) was “could not achieve”, the E0 ([9]; Imax model, AUC0-24h/MIC index) was 0.51 log10CFU/g and the “IC50 (AUC0-24h/MIC producing 50% of the maximum antibacterial effect)” value ([9]; Imax model, AUC0-24h/MIC index) was 122.19. The Imax ([9]; Imax model, AUC0-24h/MIC index) was 4.55 log10CFU/g, the “AUC0-24h/MIC for 1 log10 kill” value ([9]; intestinal infection model) was 60.66 and the “AUC0-24h/MIC for 2 log10 kill” value ([9]; intestinal infection model) was 150.15. For the same compound, the “AUC0-24h/MIC for bacteriostatic action” value ([9]; intestinal infection model) was 15.62, the “Dose of colistin required to reach 1 × log10 kill” value [10] was 7.54 mg/kg and the “Dose of colistin required to reach 3 × log10 kill” value [10] was “could not achieve”. For the same compound, the “Dose of colistin required to reach 4 × log10 kill” value [10] was “could not achieve”, the “Dose of colistin required to reach stasis” value [10] was 1.94 mg/kg and the “Time to colistin levels below the LOQ after dosing cessation” value [11] was no more than 4 h.
